Assay results: ChEMBL document CHEMBL1201862, “PubChem BioAssay data set” (2004)
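Assay format: 96-well plates, 48-hour exposure. Abbreviation: GI50, concentration required for 50% inhibition of growth.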 Calls of active or inactive are those of the source. No stated cut-off is given here; in the data, active = GI50 up to about 1.1 µM and inactive = higher.

What was measured:
Test in all cases: NCI-60 cell line screen, 48 h
UO-31 = test system: UO-31
SN12C = test system: SN12C
NCI-H23 = test system: NCI-H23
BT-549 = test system: BT-549
NCI-H522 = test system: NCI-H522
SF-539 = test system: SF-539
CCRF-CEM = test system: CCRF-CEM
K562 = test system: K562
LOX IMVI = test system: LOX IMVI
SK-OV-3 = test system: SK-OV-3
M14 = test system: M14
Malme-3M = test system: Malme-3M
NCI-H226 = test system: NCI-H226
SR = test system: SR
HCT-116 = test system: HCT-116
HT-29 = test system: HT-29
MDA-MB-231 = test system: MDA-MB-231
UACC-257 = test system: UACC-257
MOLT-4 = test system: MOLT-4
SF-295 = test system: SF-295
NCI-H460 = test system: NCI-H460
SK-MEL-28 = test system: SK-MEL-28
KM12 = test system: KM12
NCI/ADR-RES = test system: NCI/ADR-RES
CAKI-1 = test system: CAKI-1
PC-3 = test system: PC-3
SF-268 = test system: SF-268
Hs-578T = test system: Hs-578T
HCT-15 = test system: HCT-15
HOP-62 = test system: HOP-62
MCF7 = test system: MCF7
OVCAR-3 = test system: OVCAR-3
IGROV-1 = test system: IGROV-1
SK-MEL-5 = test system: SK-MEL-5
OVCAR-5 = test system: OVCAR-5
OVCAR-8 = test system: OVCAR-8
786-0 = test system: 786-0
OVCAR-4 = test system: OVCAR-4
MDA-MB-435 = test system: MDA-MB-435
A549 = test system: A549
HCC 2998 = test system: HCC 2998
RPMI-8226 = test system: RPMI-8226
TK-10 = test system: TK-10
SNB-19 = test system: SNB-19
T47D = test system: T47D
MDA-N = test system: MDA-N
SK-MEL-2 = test system: SK-MEL-2
ACHN = test system: ACHN
EKVX = test system: EKVX
U-251 = test system: U-251
SW-620 = test system: SW-620
SNB-75 = test system: SNB-75
UACC-62 = test system: UACC-62
COLO 205 = test system: COLO 205
HOP-92 = test system: HOP-92
DU-145 = test system: DU-145
A498 = test system: A498
RXF 393 = test system: RXF 393

Compound: C/C(CC(O)(/C=N/O)c1ccccc1)=N/O (stereo not given)
- GI50 (UO-31): > 100 µM (inactive)
- GI50 (SN12C): > 100 µM (inactive)
- GI50 (NCI-H23): > 100 µM (inactive)
- GI50 (BT-549): > 100 µM (inactive)
- GI50 (NCI-H522): > 100 µM (inactive)
- GI50 (SF-539): > 100 µM (inactive)
- GI50 (CCRF-CEM): > 100 µM (inactive)
- GI50 (K562): > 100 µM (inactive)
- GI50 (LOX IMVI): > 100 µM (inactive)
- GI50 (SK-OV-3): > 100 µM (inactive)
- GI50 (M14): > 100 µM (inactive)
- GI50 (Malme-3M): > 100 µM (inactive)
- GI50 (NCI-H226): > 100 µM (inactive)
- GI50 (SR): > 100 µM (inactive)
- GI50 (HCT-116): > 100 µM (inactive)
- GI50 (HT-29): > 100 µM (inactive)
- GI50 (MDA-MB-231): > 100 µM (inactive)
- GI50 (UACC-257): > 100 µM (inactive)
- GI50 (MOLT-4): > 100 µM (inactive)
- GI50 (SF-295): > 100 µM (inactive)
- GI50 (NCI-H460): > 100 µM (inactive)
- GI50 (SK-MEL-28): > 100 µM (inactive)
- GI50 (KM12): > 100 µM (inactive)
- GI50 (NCI/ADR-RES): 99.8 µM (inactive)
- GI50 (CAKI-1): > 100 µM (inactive)
- GI50 (PC-3): > 100 µM (inactive)
- GI50 (SF-268): > 100 µM (inactive)
- GI50 (Hs-578T): > 100 µM (inactive)
- GI50 (HCT-15): > 100 µM
- GI50 (HOP-62): > 100 µM (inactive)
- GI50 (MCF7): > 100 µM (inactive)
- GI50 (OVCAR-3): > 100 µM (inactive)
- GI50 (IGROV-1): > 100 µM (inactive)
- GI50 (SK-MEL-5): > 100 µM (inactive)
- GI50 (OVCAR-5): > 100 µM (inactive)
- GI50 (OVCAR-8): > 100 µM (inactive)
- GI50 (786-0): > 100 µM (inactive)
- GI50 (OVCAR-4): > 100 µM (inactive)
- GI50 (MDA-MB-435): > 100 µM (inactive)
- GI50 (A549): > 100 µM (inactive)
- GI50 (HCC 2998): > 100 µM (inactive)
- GI50 (RPMI-8226): > 100 µM (inactive)
- GI50 (TK-10): > 100 µM (inactive)
- GI50 (SNB-19): > 100 µM (inactive)
- GI50 (T47D): > 100 µM (inactive)
- GI50 (MDA-N): > 100 µM (inactive)
- GI50 (SK-MEL-2): > 100 µM (inactive)
- GI50 (ACHN): > 100 µM (inactive)
- GI50 (EKVX): > 100 µM (inactive)
- GI50 (U-251): > 100 µM (inactive)
- GI50 (SW-620): > 100 µM (inactive)

Compound: ON=C1CCCCC(=NO)CCCC1
- GI50 (SNB-75): > 100 µM (inactive)
- GI50 (UO-31): > 100 µM (inactive)
- GI50 (SN12C): > 100 µM (inactive)
- GI50 (UACC-62): > 100 µM (inactive)
- GI50 (NCI-H23): > 100 µM (inactive)
- GI50 (BT-549): > 100 µM (inactive)
- GI50 (NCI-H522): > 100 µM (inactive)
- GI50 (SF-539): > 100 µM (inactive)
- GI50 (K562): > 100 µM (inactive)
- GI50 (LOX IMVI): > 100 µM (inactive)
- GI50 (SK-OV-3): > 100 µM (inactive)
- GI50 (Malme-3M): > 100 µM (inactive)
- GI50 (NCI-H226): > 100 µM (inactive)
- GI50 (COLO 205): > 100 µM (inactive)
- GI50 (HCT-116): > 100 µM (inactive)
- GI50 (HT-29): > 100 µM (inactive)
- GI50 (MDA-MB-231): > 100 µM (inactive)
- GI50 (UACC-257): > 100 µM (inactive)
- GI50 (SF-295): > 100 µM (inactive)
- GI50 (NCI-H460): > 100 µM (inactive)
- GI50 (SK-MEL-28): > 100 µM (inactive)
- GI50 (KM12): > 100 µM (inactive)
- GI50 (NCI/ADR-RES): > 100 µM (inactive)
- GI50 (CAKI-1): > 100 µM (inactive)
- GI50 (HOP-92): > 100 µM (inactive)
- GI50 (PC-3): > 100 µM (inactive)
- GI50 (DU-145): > 100 µM (inactive)
- GI50 (SF-268): > 100 µM (inactive)
- GI50 (Hs-578T): > 100 µM (inactive)
- GI50 (HCT-15): > 100 µM
- GI50 (MCF7): > 100 µM (inactive)
- GI50 (SK-MEL-5): > 100 µM (inactive)
- GI50 (A498): > 100 µM (inactive)
- GI50 (OVCAR-8): > 100 µM (inactive)
- GI50 (786-0): > 100 µM (inactive)
- GI50 (OVCAR-4): > 100 µM (inactive)
- GI50 (MDA-MB-435): > 100 µM (inactive)
- GI50 (A549): > 100 µM (inactive)
- GI50 (HCC 2998): > 100 µM (inactive)
- GI50 (RPMI-8226): > 100 µM (inactive)
- GI50 (TK-10): > 100 µM (inactive)
- GI50 (SNB-19): > 100 µM (inactive)
- GI50 (T47D): > 100 µM (inactive)
- GI50 (MDA-N): > 100 µM (inactive)
- GI50 (SK-MEL-2): > 100 µM (inactive)
- GI50 (ACHN): > 100 µM (inactive)
- GI50 (U-251): > 100 µM (inactive)
- GI50 (SW-620): > 100 µM (inactive)

Compound: C/C(=C\c1ccccc1)n1c(=O)cc(C)n1C
- GI50 (SNB-75): > 100 µM (inactive)
- GI50 (UO-31): > 100 µM (inactive)
- GI50 (SN12C): > 100 µM (inactive)
- GI50 (UACC-62): > 100 µM (inactive)
- GI50 (NCI-H23): > 100 µM (inactive)
- GI50 (BT-549): > 100 µM (inactive)
- GI50 (SF-539): > 100 µM (inactive)
- GI50 (CCRF-CEM): > 100 µM (inactive)
- GI50 (K562): > 100 µM (inactive)
- GI50 (LOX IMVI): > 100 µM (inactive)
- GI50 (SK-OV-3): > 100 µM (inactive)
- GI50 (M14): > 100 µM (inactive)
- GI50 (NCI-H226): > 100 µM (inactive)
- GI50 (COLO 205): > 100 µM (inactive)
- GI50 (HCT-116): > 100 µM (inactive)
- GI50 (HT-29): > 100 µM (inactive)
- GI50 (UACC-257): > 100 µM (inactive)
- GI50 (MOLT-4): 25.7 µM (inactive)
- GI50 (SF-295): > 100 µM (inactive)
- GI50 (NCI-H460): > 100 µM (inactive)
- GI50 (SK-MEL-28): > 100 µM (inactive)
- GI50 (KM12): > 100 µM (inactive)
- GI50 (NCI/ADR-RES): > 100 µM (inactive)
- GI50 (CAKI-1): > 100 µM (inactive)
- GI50 (HOP-92): > 100 µM (inactive)
- GI50 (PC-3): > 100 µM (inactive)
- GI50 (DU-145): > 100 µM (inactive)
- GI50 (SF-268): > 100 µM (inactive)
- GI50 (Hs-578T): > 100 µM (inactive)
- GI50 (HOP-62): > 100 µM (inactive)
- GI50 (MCF7): > 100 µM (inactive)
- GI50 (OVCAR-3): > 100 µM (inactive)
- GI50 (IGROV-1): > 100 µM (inactive)
- GI50 (SK-MEL-5): > 100 µM (inactive)
- GI50 (OVCAR-5): > 100 µM (inactive)
- GI50 (OVCAR-8): > 100 µM (inactive)
- GI50 (OVCAR-4): > 100 µM (inactive)
- GI50 (MDA-MB-435): > 100 µM (inactive)
- GI50 (A549): > 100 µM (inactive)
- GI50 (HCC 2998): > 100 µM (inactive)
- GI50 (RPMI-8226): > 100 µM (inactive)
- GI50 (TK-10): > 100 µM (inactive)
- GI50 (SNB-19): > 100 µM (inactive)
- GI50 (T47D): > 100 µM (inactive)
- GI50 (MDA-N): > 100 µM (inactive)
- GI50 (SK-MEL-2): > 100 µM (inactive)
- GI50 (ACHN): > 100 µM (inactive)
- GI50 (EKVX): > 100 µM (inactive)
- GI50 (U-251): > 100 µM (inactive)
- GI50 (RXF 393): > 100 µM (inactive)
- GI50 (SW-620): > 100 µM (inactive)
